Details: Liquid, Vibrating tube method

CCCCCCC(=O)OCC(COC(=O)CCCCCC)(COC(=O)CCCCCC)COC(=O)CCCCCC [pentaerythritol tetraheptanoate]
Details | mass density [kg/m3]
343.16 K, 13701 kPa | 950.5
343.16 K, 13714 kPa | 950.6
343.16 K, 13726 kPa | 950.6
343.16 K, 13738 kPa | 950.7
343.16 K, 13753 kPa | 950.7
343.16 K, 13764 kPa | 950.6
343.16 K, 13779 kPa | 950.7
343.16 K, 13792 kPa | 950.7
343.16 K, 13806 kPa | 950.8
343.16 K, 13818 kPa | 950.6
343.16 K, 14528 kPa | 951.2
343.16 K, 14542 kPa | 951.2
343.16 K, 16080 kPa | 952.4
343.16 K, 16100 kPa | 952.3
343.16 K, 16118 kPa | 952.2
343.16 K, 32564 kPa | 962.8
343.16 K, 32603 kPa | 963
343.16 K, 32650 kPa | 963.1
343.16 K, 32688 kPa | 963
343.17 K, 14556 kPa | 951.3
343.17 K, 14573 kPa | 951.2
343.17 K, 14631 kPa | 951.4
343.17 K, 14645 kPa | 951.3
343.17 K, 14662 kPa | 951.3
343.17 K, 14676 kPa | 951.3
343.17 K, 14690 kPa | 951.3
343.17 K, 14707 kPa | 951.4
343.17 K, 14721 kPa | 951.4
343.17 K, 14735 kPa | 951.3
343.17 K, 14750 kPa | 951.3
343.17 K, 14767 kPa | 951.3
343.17 K, 14782 kPa | 951.4
343.17 K, 14796 kPa | 951.5
343.17 K, 14814 kPa | 951.5
343.17 K, 14828 kPa | 951.3
343.17 K, 14843 kPa | 951.4
343.17 K, 14858 kPa | 951.4
343.17 K, 14873 kPa | 951.5
343.17 K, 14890 kPa | 951.5
343.17 K, 14902 kPa | 951.5
343.17 K, 14922 kPa | 951.4
343.17 K, 14937 kPa | 951.4
343.17 K, 14952 kPa | 951.5
343.17 K, 14966 kPa | 951.6
343.17 K, 14984 kPa | 951.7
343.17 K, 14999 kPa | 951.6
343.17 K, 15013 kPa | 951.5
343.17 K, 15032 kPa | 951.7
343.17 K, 15048 kPa | 951.5
343.17 K, 15063 kPa | 951.4
343.17 K, 15077 kPa | 951.6
343.17 K, 15092 kPa | 951.6
343.17 K, 15110 kPa | 951.6
343.17 K, 15125 kPa | 951.6
343.17 K, 15140 kPa | 951.7
343.17 K, 15158 kPa | 951.6
343.17 K, 15173 kPa | 951.7
343.17 K, 15191 kPa | 951.6
343.17 K, 15206 kPa | 951.6
343.17 K, 15221 kPa | 951.7
343.17 K, 15240 kPa | 951.7
343.17 K, 15255 kPa | 951.6
343.17 K, 15270 kPa | 951.8
343.17 K, 15286 kPa | 951.7
343.17 K, 15305 kPa | 951.7
343.17 K, 15320 kPa | 951.9
343.17 K, 15338 kPa | 951.6
343.17 K, 15354 kPa | 951.8
343.17 K, 15369 kPa | 951.6
343.17 K, 15387 kPa | 951.9
343.17 K, 15403 kPa | 951.8
343.17 K, 15419 kPa | 952
343.17 K, 15437 kPa | 951.8
343.17 K, 15453 kPa | 951.8
343.17 K, 15469 kPa | 951.8
343.17 K, 15488 kPa | 951.9
343.17 K, 15504 kPa | 951.9
343.17 K, 15520 kPa | 951.9
343.17 K, 15536 kPa | 951.9
343.17 K, 15555 kPa | 951.9
343.17 K, 15571 kPa | 952
343.17 K, 15587 kPa | 951.9
343.17 K, 15606 kPa | 951.8
343.17 K, 15622 kPa | 952
343.17 K, 15638 kPa | 952.1
343.17 K, 15655 kPa | 952.1
343.17 K, 15674 kPa | 952.1
343.17 K, 15691 kPa | 952
343.17 K, 15707 kPa | 952
343.17 K, 15724 kPa | 952.2
343.17 K, 15743 kPa | 952
343.17 K, 15759 kPa | 952.1
343.17 K, 15778 kPa | 952
343.17 K, 15795 kPa | 952.1
343.17 K, 15812 kPa | 952.2
343.17 K, 15831 kPa | 952.1
343.17 K, 15848 kPa | 952.2
343.17 K, 15865 kPa | 952.2
343.17 K, 15884 kPa | 952.1
343.17 K, 15901 kPa | 952.2
343.17 K, 15918 kPa | 952.3
343.17 K, 15938 kPa | 952.3
343.17 K, 15955 kPa | 952.2
343.17 K, 15972 kPa | 952.2
343.17 K, 15989 kPa | 952.3
343.17 K, 16009 kPa | 952.3
343.17 K, 16025 kPa | 952.2
343.17 K, 16042 kPa | 952.3
343.17 K, 16062 kPa | 952.2
343.18 K, 14586 kPa | 951.4
343.18 K, 14600 kPa | 951.2
343.18 K, 14617 kPa | 951.3
